# Experimental data as given in US9499550B2 (BRISTOL-MYERS SQUIBB COMPANY, priority 2012, dated 2016).
# Like-named read-outs stand apart in the source and are kept apart here.
# Legend:
# [1] = tested on: HCV genotype 1a (H77 strain) replicon in HUH-7 cells; experiment: HCV replicon luciferase reporter assay, genotype 1a; format: cell-based; conditions: Hepatitis C virus, Huh-7, 72 h, 3 days incubation
# How it was run: (§1)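 Replicon inhibition for both genotypes was measured as Renilla luciferase signal (EnduRen, 7.5 μM final, 2 h) after 3-day, 37° C exposure of replicon-bearing HUH-7 cells in 4% FCS DMEM, 0.5% DMSO. The 1b construct carries S1179I; the 1a H77 construct carries P1496L and S2204I. Twenty-point, 3-fold dilutions were fitted four-parametrically for EC50, and CC50 was taken from multiplexed Cell Titer-Blue.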
# [2] = tested on: HCV genotype 1b (Con1) replicon in HUH-7 cells; experiment: HCV replicon luciferase reporter assay, genotype 1b; format: cell-based; conditions: Hepatitis C virus, Huh-7, 72 h, 3 days incubation
# How it was run: as §1
# [3] = HCV genotype 1a replicon luciferase, read-out: LE_1a (EC50, range)
# [4] = HCV genotype 1b replicon luciferase, read-out: LE_1b (EC50, range)
# [5] = HCV genotype 1a replicon luciferase assay, range class, read-out: LE_1a (EC50, range)
# [6] = HCV genotype 1b replicon luciferase assay, range class, read-out: LE_1b (EC50, range)
SMILES,"EC50 [1, 3]","EC50 [2, 4]","EC50 [1, 5]","EC50 [2, 6]",further results
"COc1cc2cc(-c3ccc(OC(C)C)cc3)nc(O[C@@H]3C[C@H]4C(=O)N[C@]5(C(=O)NS(=O)(=O)C6CC6)C[C@H]5/C=C\CC[C@H](C)C[C@@H](C)[C@H](NC(=O)OC(C)(C)C(F)(F)F)C(=O)N4C3)c2cc1F [Compound 3189, 1,1,1-trifluoro-2-methylpropan-2-yl((2R,6S,7R,9S,13aS,14aR,16aS,Z)-14a-((cyclopropylsulfonyl)carbamoyl)-2-((7-fluoro-3-(4-isopropoxyphenyl)-6-methoxyisoquinolin-1-yl)oxy)-7,9-dimethyl-5,16-dioxo-1,2,3,5,6,7,8,9,10,11,13a,14,14a,15,16,16a-hexadecahydrocyclopropa[e]pyrrolo[1,2-a][1,4]diazacyclopentadecin-6-yl)carbamate]",4.82 to 103 nM,< 5.46 nM,,,
CC[C@@H]1C[C@H](C)CC/C=C\[C@@H]2C[C@@]2(C(=O)NS(=O)(=O)C2(C)CC2)NC(=O)[C@@H]2C[C@@H](Oc3ncc(N(C)C)c4cc(OC)ccc34)CN2C(=O)[C@H]1NC(=O)OC(C)(C)C(F)(F)F [Compound 4241],,,,,"EC50 ([1]; GETYPE1A, HCV genotype 1a replicon luciferase, read-out: LE_1a (EC50, range)): 1.01 to 5 nM; EC50 ([2]; GETYPE1B, HCV genotype 1b replicon luciferase, read-out: LE_1b (EC50, range)): 1.01 to 5 nM"
"C[C@H]1CC/C=C\[C@@H]2C[C@@]2(C(=O)NS(=O)(=O)C2CC2)NC(=O)[C@@H]2C[C@@H](Oc3nc(OCC(F)F)cc4c(Cl)cccc34)CN2C(=O)[C@@H](NC(=O)O[C@H](C)C(F)(F)F)[C@H](C)C1 [Compound 1099, (R)-1,1,1-trifluoropropan-2-yl ((2R,6S,7R,9S,13aS,14aR,16aS,Z)-2-((5-chloro-3-(2,2-difluoroethoxyl)isoquinolin-1-yl)oxy)-14a-((cyclopropylsulfonyl)carbamoyl)-7,9-dimethyl-5,16-dioxo-1,2,3,5,6,7,8,9,10,11,13a,14,14a,15,16,16a-hexadecahydrocyclopropa[e]pyrrolo[1,2-a][1,4]diazacyclopentadecin-6-yl)carbamate]",,,< 5.46 nM,< 5.46 nM,
"CCCOc1cnc(O[C@@H]2C[C@H]3C(=O)N[C@]4(C(=O)NS(=O)(=O)C5CC5)C[C@H]4/C=C\CC[C@H](C)C[C@@H](C)[C@H](NC(=O)NC(C)(C)C(F)(F)F)C(=O)N3C2)c2ccccc12 [Compound 5098, (2R,6S,7R,9S,13aS,14aR,16aS,Z)—N-(cyclopropylsulfonyl)-7,9-dimethyl-5,16-dioxo-2-((4-propoxyisoquinolin-1-yl)oxy)-6-(3-(1,1,1-trifluoro-2-methylpropan-2-yl)ureido)-1,2,3,5,6,7,8,9,10,11,13a,14,14a,15,16,16a-hexadecahydrocyclopropa[e]pyrrolo[1,2-a][1,4]diazacyclopentadecine-14a-carboxamide]",> 87.4 nM,> 87.4 nM,,,
"[2H]C([2H])([2H])C(C)(OC(=O)N[C@@H]1C(=O)N2C[C@H](Oc3nccc4c5c(ccc34)N(C)CCO5)C[C@H]2C(=O)N[C@]2(C(=O)NS(=O)(=O)C3CC3)C[C@H]2/C=C\CC[C@H](C)C[C@H]1C)C([2H])([2H])[2H] [Compound 5285, 1,1,1,3,3,3-hexadeutero-2-methylpropan-2-yl((2R,6S,7R,9S,13aS,14aR,16aS,Z)-14a-((cyclopropylsulfonyl)carbamoyl)-7,9-dimethyl-2-((4-methyl-3,4-dihydro-2H-[1,4]oxazino[2,3-f]isoquinolin-7-yl)oxy)-5,16-dioxo-1,2,3,5,6,7,8,9,10,11,13a,14,14a,15,16,16a-hexadecahydrocyclopropa[e]pyrrolo[1,2-a][1,4]diazacyclopentadecin-6-yl)carbamate]",4.82 to 103 nM,< 5.46 nM,,,
"C[C@H]1CC/C=C\[C@@H]2C[C@@]2(C(=O)NS(=O)(=O)C2CC2)NC(=O)[C@@H]2C[C@@H](Oc3nccc4c5c(ccc34)N(C)CCO5)CN2C(=O)[C@@H](NC(=O)OC(C)(C)C(C)(F)F)[C@H](C)C1 [Compound 5281, 3,3-difluoro-2-methylbutan-2-yl((2R,6S,7R,9S,13aS,14aR,16aS,Z)-14a-((cyclopropylsulfonyl)carbamoyl)-7,9-dimethyl-2-((4-methyl-3,4-dihydro-2H-[1,4]oxazino[2,3-f]isoquinolin-7-yl)oxy)-5,16-dioxo-1,2,3,5,6,7,8,9,10,11,13a,14,14a,15,16,16a-hexadecahydrocyclopropa[e]pyrrolo[1,2-a][1,4]diazacyclopentadecin-6-yl)carbamate]",< 5.46 nM,< 5.46 nM,,,
"[2H]C([2H])([2H])C(OC(=O)N[C@@H]1C(=O)N2C[C@H](Oc3nccc4c5c(ccc34)N(C)CCO5)C[C@H]2C(=O)N[C@]2(C(=O)NS(=O)(=O)C3(C)CC3)C[C@H]2/C=C\CC[C@H](C)C[C@H]1C)(C([2H])([2H])[2H])C(F)(F)F [Compound 5297, 1,1,1,3,3,3-hexadeutero-2-(trifluoromethyl)propan-2-yl((2R,6S,7R,9S,13aS,14aR,16aS,Z)-7,9-dimethyl-2-((4-methyl-3,4-dihydro-2H-[1,4]oxazino[2,3-f]isoquinolin-7-yl)oxy)-14a-(((1-methylcyclopropyl)sulfonyl)carbamoyl)-5,16-dioxo-1,2,3,5,6,7,8,9,10,11,13a,14,14a,15,16,16a-hexadecahydrocyclopropa[e]pyrrolo[1,2-a][1,4]diazacyclopentadecin-6-yl)carbamate]",4.82 to 103 nM,< 5.46 nM,,,"EC50 ([1]; HCV genotype 1a replicon luciferase, read-out: LE_1a (EC50)): 7.06 nM; EC50 ([2]; HCV genotype 1b replicon luciferase, read-out: LE_1b (EC50)): 3.16 nM"
"CC(C)Oc1cc2ccccc2c(O[C@@H]2C[C@H]3C(=O)N[C@]4(C(=O)NS(=O)(=O)C5(C)CC5)C[C@H]4/C=C\CC[C@@H](C)C[C@@H](C)[C@H](NC(=O)OC(C)(C)C(C)(F)F)C(=O)N3C2)n1 [Compound 6106, 3,3-difluoro-2-methylbutan-2-yl((2R,6S,7R,9R,13aS,14aR,16aS,Z)-2-((3-isopropoxyisoquinolin-1-yl)oxy)-7,9-dimethyl-14a-(((1-methylcyclopropyl)sulfonyl)carbamoyl)-5,16-dioxo-1,2,3,5,6,7,8,9,10,11,13a,14,14a,15,16,16a-hexadecahydrocyclopropa[e]pyrrolo[1,2-a][1,4]diazacyclopentadecin-6-yl)carbamate]",1.01 to 5 nM,0.1 to 0.5 nM,,,
"COc1ccc2c(O[C@@H]3C[C@H]4C(=O)N[C@]5(C(=O)NS(=O)(=O)C6CC6)C[C@H]5/C=C\CC[C@H](C)C[C@@H](C)[C@H](NC(=O)O[C@H](C)C(F)(F)F)C(=O)N4C3)nc(N3CCOCC3)cc2c1 [Compound 3102, (R)-1,1,1-trifluoropropan-2-yl ((2R,6S,7R,9S,13aS,14aR,16aS,Z)-14a-((cyclopropylsulfonyl)carbamoyl)-2-((6-methoxy-3-morpholinoisoquinolin-1-yl)oxy)-7,9-dimethyl-5,16-dioxo-1,2,3,5,6,7,8,9,10,11,13a,14,14a,15,16,16a-hexadecahydrocyclopropa[e]pyrrolo[1,2-a][1,4]diazacyclopentadecin-6-yl)carbamate]",,,4.82 to 103 nM,< 5.46 nM,
"C[C@H]1CC/C=C\[C@@H]2C[C@@]2(C(=O)NS(=O)(=O)C2(C)CC2)NC(=O)[C@@H]2C[C@@H](Oc3nc(OCC(F)F)cc4c(Cl)cccc34)CN2C(=O)[C@@H](NC(=O)O[C@H](C)C(F)(F)F)[C@H](C)C1 [Compound 1107, (R)-1,1,1-trifluoropropan-2-yl ((2R,6S,7R,9S,13aS,14aR,16aS,Z)-2-((5-chloro-3-(2,2-difluoroethoxyl)isoquinolin-1-yl)oxy)-7,9-dimethyl-14a-(((1-methylcyclopropyl)sulfonyl)carbamoyl)-5,16-dioxo-1,2,3,5,6,7,8,9,10,11,13a,14,14a,15,16,16a-hexadecahydrocyclopropa[e]pyrrolo[1,2-a][1,4]diazacyclopentadecin-6-yl)carbamate]",,,4.82 to 103 nM,< 5.46 nM,
